One test deals with T1, Aurora A (Homo sapiens, UniProt O14965).
T1 construct: C-terminally Histidine4 (His4)-tagged Aurora A full-length protein
T1 sequence (O14965 1-403): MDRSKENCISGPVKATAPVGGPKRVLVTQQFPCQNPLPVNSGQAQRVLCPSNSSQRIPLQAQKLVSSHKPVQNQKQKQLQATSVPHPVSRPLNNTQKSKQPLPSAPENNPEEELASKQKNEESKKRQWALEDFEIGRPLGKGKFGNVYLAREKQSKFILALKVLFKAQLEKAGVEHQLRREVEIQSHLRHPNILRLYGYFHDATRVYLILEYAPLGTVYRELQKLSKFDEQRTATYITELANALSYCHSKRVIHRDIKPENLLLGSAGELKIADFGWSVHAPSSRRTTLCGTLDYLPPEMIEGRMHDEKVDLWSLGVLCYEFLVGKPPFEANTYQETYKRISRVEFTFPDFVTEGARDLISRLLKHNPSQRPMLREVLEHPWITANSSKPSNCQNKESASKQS
Briefly: IC50 determination for inhibitors of Aurora A (96 MTP-ELISA). Format: biochemical. The note with it: His4-tagged full-length Aurora A 250 ng/ml, PKB-GSK2 200 nM, ATP 4 μM, 90 min at room temperature; read-out: IC50 Aurora A kinase inhibition. From the text: IC50 Determination for Inhibitors of Aurora A
Aurora A is a serine threonine kinase involved in spindle assembly and chromosome segregation.
The assay is a typically ELISA-type assay where biotinylated substrate (PKB-GSK2) is phosphorylated. Phosphorylation is detected by peroxidase (POD) labelled polyclonal antibody (PAK<M-Ig>S-IgG-POD) and phosphopeptide monoclonal antibody (Mab) (MAK<P-GSK>M-27E5-IgG). The assay is validated for IC50-determination.
Aurora A-His-4 C-terminally Histidine4 (His4)-tagged Aurora A full-length protein, stock solution 0.7 mg/ml, final conc.: 250 ng/ml
PKB-GSK2 biotinylated peptide derived from human GSK3-alpha sequence (Biotin-SGRARTSSFAEPGG-CONH2), stock solution 600 μM, final conc.: 200 nM
ATP Adenosine-5′-triphosphate 1 mM, diluted in kinase buffer, (Roche Diagnostics GmbH, Cat. No.: 127531-001,), final conc.: 4 μM
Kinase buffer 50 mM TRIS, 10 mM MgCl2, 1 mM DTT, 0.1% Tween 20, pH 7.8
This assay is performed in 96-well format for IC50 determination with 5 samples (each with 8 concentrations by twofold testing), 100 μl incubation volume and the following plate layout:
Step/Action 1. Sample preparation: add 24 μl per well samples (descending sequence) diluted in kinase buffer to assay plate (final conc. for DMSO 1%). 2. Add directly 16 μl Aurora-A-his-4 diluted in kinase buffer to assay plate. 3. Add directly 40 μl per well PKB-GSK2/ATP mixture to assay plate, (final conc.: Aurora A=250 ng/ml, GSK2=200 nM, ATP=4 μM). Negative control: without ATP. 4. Incubate assay plate for exactly 90 min at room temperature. 5. Stop reaction by adding 20 μl EDTA in all wells. 6. Wash assay plate 3× with 200 μl washing buffer per well. 7. Add 100 μl MAK<P-GSK>M27E5-IgG (1:10000) and PAK<M-Ig>S-IgG-POD (1:6000) dissolved in 3% BSA/PBS-T to assay plate per well. 8. Incubate assay plate for 60 min at room temperature. 9. Wash assay plate 3× with 200 μl washing buffer per well 10. Add 100 μl ABTS solution to assay plate per well, incubate for approx. 4 min at RT on MTP shaker. 11. Measure absorption at 405/492 nm. 12. Calculate % inhibition as: (1−(Esample−ENC)/(EPC−ENC))×100 13. Calculate IC50 using a non-linear curve fit (XLfit software (ID Business Solution Ltd., Guilford, Surrey, UK))

The test system of another test is HCT 116 cells. The test can be described thus: CellTiter-Glo assay in HCT 116 cells (antiproliferative activity). The class given is cell-based. To be noted: HCT 116 human colon carcinoma cells, 5 days (120 h) incubation, CellTiter-Glo luminescence. An excerpt:
Antiproliferative Activity
CellTiter-Glo™ Assay in HCT 116 Cells
The CellTiter-Glo™ Luminescent Cell Viability Assay (Promega) is a homogeneous method of determining the number of viable cells in culture based on quantitation of the ATP present, which signals the presence of metabolically active cells.
HCT 116 cells (human colon carcinoma, ATCC-No. CCI-247) were cultivated in RPMI 1640 medium with GlutaMAX™ I (Invitrogen, Cat-No. 61870-010), 2.5% Fetal Calf Serum (FCS, Sigma Cat-No. F4135 (FBS)); 100 Units/ml penicillin/100 μg/ml streptomycin (=Pen/Strep from Invitrogen Cat. No. 15140). For the assay the cells were seeded in 384 well plates, 1000 cells per well, in the same medium. The next day the test compounds were added in various concentrations ranging from 30 μM to 0.0015 μM (10 concentrations, 1:3 diluted). After 5 days the CellTiter-Glo™ assay was done according to the instructions of the manufacturer (CellTiter-Glo™ Luminescent Cell Viability Assay, from Promega). In brief: the cell-plate was equilibrated to room temperature for approximately 30 minutes and than the CellTiter-Glo™ reagent was added. The contents were carefully mixed for 15 minutes to induce cell lysis. After 45 minutes the luminescent signal was measured in Victor 2, (scanning multiwell spectrophotometer, Wallac).
Medium: RPMI 1640 with GlutaMAX™ I (Invitrogen, Cat-Nr. 61870), 5% FCS (Sigma Cat.-No. F4135), Pen/Strep (Invitrogen, Cat No. 15140).
HCT116 (ATCC-No. CCI-247): 1000 cells in 60 μl per well of 384 well plate (Greiner 781098, μClear-plate white)
After seeding incubate plates 24 h at 37° C., 5% CO2
2nd. Day: Induction (Treatment with Compounds, 10 Concentrations):
In order to achieve a final concentration of 30 μM as highest concentration 3.5 μl of 10 mM compound stock solution were added directly to 163 μl media. Then step e) of the dilution procedure described below, was followed.
In order to achieve the second highest to the lowest concentrations, a serial dilution with dilution steps of 1:3 was followed according to the procedure (a-e) as described here below: • for the second highest concentration add 10 μl of 10 mM stock solution of compound to 20 μl dimethylsulfoxide (DMSO) • dilute 8×1:3 (always 10 μl to 20 μl DMSO) in this DMSO dilution row (results in 9 wells with concentrations from 3333.3 μM to 0.51 μM) • dilute each concentration 1:47.6 (3.5 μl compound dilution to 163 μl media) • add 10 μl of every concentration to 60 μl media in the cell plate resulting in final concentration of DMSO: 0.3% in every well and resulting in 10 final concentration of compounds ranging from 30 μM to 0.0015 μM. • Each compound is tested in triplicate. • Incubate 120 h (5 days) at 37° C., 5% CO2 Analysis:
Add 30 μl CellTiter-Glo™ Reagent (prepared from CellTiter-Glo™ Buffer and CellTiter-Glo™ Substrate (lyophilized) purchased from Promega) per well, • shake 15 minutes at room temperature • incubate further 45 minutes at room temperature without shaking Measurement:
Victor 2 scanning multiwell spectrophotometer (Wallac), Luminescence mode (0.5 sec/read, 477 nm)
Determine IC50 using a non-linear curve fit (XLfit software (ID Business Solution Ltd., Guilford, Surrey, UK))

In the case of `Cc1cc(-c2nc3cc4c(cc3[nH]2)C(C)(C)C(=O)N4C(C)C)[nH]n1` [Example 34, 5-Isopropyl-7,7-dimethyl-2-(5-methyl-2H-pyrazol-3-yl)-5,7-dihydro-1H-imidazo[4,5-f]indol-6-one], the IC50 on Aurora A lay in the range of 10 to 500 nM; with HCT 116 cells, 100 to 10000 nM.
In the case of `CCCc1cc(-c2nc3cc4c(cc3[nH]2)C(C)(C)C(=O)N4C(C)C)[nH]n1` [Example 35, 5-Isopropyl-7,7-dimethyl-2-(5-propyl-2H-pyrazol-3-yl)-5,7-dihydro-1H-imidazo[4,5-f]indol-6-one], the half-inhibitory concentration (IC50) lay in the range of 10 to 500 nM at Aurora A and 100 to 10000 nM in the test with HCT 116 cells.
`CCCN1C(=O)C(C)(C)c2cc3[nH]c(-c4cc(C)n[nH]4)nc3cc21` [Example 36, 7,7-Dimethyl-2-(5-methyl-2H-pyrazol-3-yl)-5-propyl-5,7-dihydro-1H-imidazo[4,5-f]indol-6-one]: the figures for the 50% inhibitory concentration (IC50) on Aurora A and in the test on HCT 116 cells were 10 to 500 nM and 100 to 10000 nM, respectively.
`CCCc1cc(-c2nc3cc4c(cc3[nH]2)N(CCC)C(=O)C4(C)C)[nH]n1` [Example 37, 7,7-Dimethyl-5-propyl-2-(5-propyl-2H-pyrazol-3-yl)-5,7-dihydro-3H-imidazo[4,5-f]indol-6-one]: the IC50 was in the range of 10 to 500 nM on Aurora A and 100 to 10000 nM with HCT 116 cells.
`CCCN1C(=O)C(C)(C)c2cc3[nH]c(-c4cc(C(F)(F)F)n[nH]4)nc3cc21` [Example 41, 7,7-Dimethyl-5-propyl-2-(5-trifluoromethyl-2H-pyrazol-3-yl)-5,7-dihydro-1H-imidazo[4,5-f]indol-6-one]: the IC50 was in the range of 500 to 1500 nM on Aurora A and 100 to 10000 nM with HCT 116 cells.

These data come from patent US7285569B2, “Tricycles, their manufacture and use as pharmaceutical agents” (Hoff Hoffmann-La Roche Inc., priority 2004, dated 2007).
